The values that follow come from patent publication US11029285B2, “Real-time and quantitative measurement method for cell traction force” (HUNAN AGRICULTURAL UNIVERSITY, priority 2016, dated 2021).

Type in all cases: cell-based
In test [1] the test system is human umbilical vein endothelial cells. In words: Cell morphology simulation experiments under EGTA. The note with it: after the EGTA treatments for five minutes.
Test [2] has the same test system. In words: Double resonator QCM cell traction force of 50,000 HUVECs on bare gold electrodes under EGTA. An excerpt:
(§1) The steps for measuring the cell traction force by using bare gold electrode AT-cut and BT-cut quartz crystals are as follows:
(§2) 4) checking to make sure that the 8-channel QCM instrument QCA922 has crystal resonant frequency and dynamic resistance outputs, connecting detection cells in turn, determining that each detection cell (e.g., two AT-cut crystal detection cells, two BT-cut crystal detection cells) works, and starting the software to acquire data; 5) removing the sterilized water after the data corresponding to each channel is stable, cleaning twice with sterilized water, then cleaning with PBS, add 52 μL of DMEM medium containing fetal bovine serum, and acquiring QCM resonant frequency (f) and dynamic resistance (R) data for 2 h; adding 250 μL of medium containing a certain number (e.g., 20,000) of H9C2 rat cardiomyocytes or human umbilical vein endothelial cells (HUVECs), continuously acquiring f and R data for about 20 h. The QCM relative frequency shift Δf and dynamic resistance change ΔR of each channel caused by the adhesion of cells at different adhesion time are determined by subtracting the corresponding QCM stable values in media of the channel at the time (t). 6) After the experiment, collecting the medium, gently washing with PBS, adding trypsin for digestion, and counting the cells in the collected fraction with a cytometer; 7) Quantitatively measuring the dynamic change ΔS in the cell traction force during the cell adhesion process according to the frequency shifts Δft^AT and Δft^BT of the paired AT-cut and BT-cut quartz crystals at the time t: ΔSt=(KAT−KBT)^−1[tq^ATΔft^AT/fr^AT−tq^BTΔft^BT/fr^BT] (1),
in which, ΔSt is the traction force of cells at the adhesion time t; KAT=2.75×10^−12 cm^2 dyn^−1 and KBT=−2.65×10^−12 cm^2dyn^−1 are stress coefficients of the AT-cut and BT-cut quartz crystals of given crystal orientations, respectively, and are constants. fr^AT and fr^BT are the resonant frequencies of the AT-cut and BT-cut quartz crystals, respectively; tq^AT and tq^BT are the thicknesses of the AT-cut and BT-cut quartz crystals, respectively, and are constants. Therefore, the surface stress or traction force applied to the crystal by cells in the adhesion process or under the action of a drug can be quantitatively measured according to the frequency shifts Δft^AT, Δft^BT (in Hz) of the AT-cut crystal, the BT-cut crystal at any time t relative to its reference point (e.g., a stabile value in the medium or a stabile value before dosing) based on formula (1). The frequency of the quartz crystal is a digital signal, which can be easily, quickly and continuously acquired or measured by a frequency counting device or a QCM special instrument. […]

The subject of a further test is H9C2 rat cardiomyocytes. Nature of the test: Double resonator QCM (AT-cut/BT-cut) cell traction force of H9C2 rat cardiomyocytes under inotropic drugs. Conditions: 20,000 H9C2 cells on bare gold. The protocol: as §1
1) dripping 1 drop of Piranha solution (80° C. 1:3 (v:v) 30% H2O2:H2SO4) to the center of each quartz crystal gold electrode for about 30 s, then rinsing with distilled water, drying with nitrogen, and repeating this step by 3 times;
2) assembling the crystals in a Teflon well cell;
3) cleaning the Teflon cell twice with distilled water, then adding about 300 μL of sterilized water, and putting into a 5% CO2 incubator at 37° C.;
as §2
(§3) in which, ΔSt is the traction force of cells at the adhesion time t; KAT=2.75×10^−12 cm^2 dyn^−1 and KBT=−2.65×10^−12 cm^2dyn^−1 are stress coefficients of the AT-cut and BT-cut quartz crystals of given crystal orientations, respectively, and are constants. fr^AT and fr^BT are the resonant frequencies of the AT-cut and BT-cut quartz crystals, respectively; tq^AT and tq^BT are the thicknesses of the AT-cut and BT-cut quartz crystals, respectively, and are constants. Therefore, the surface stress or traction force applied to the crystal by cells in the adhesion process or under the action of a drug can be quantitatively measured according to the frequency shifts Δft^AT, Δft^BT (in Hz) of the AT-cut crystal, the BT-cut crystal at any time t relative to its reference point (e.g., a stabile value in the medium or a stabile value before dosing) based on formula (1). The frequency of the quartz crystal is a digital signal, which can be easily, quickly and continuously acquired or measured by a frequency counting device or a QCM special instrument. The crystal frequency used in the experiment of the present disclosure is 9 MHz, where tq^AT=0.0185 cm, and tq^BT=0.0282 cm. Thus, formula (1) can be simplified as: ΔSt=2.058×10^4(0.0185Δft^AT−0.0282Δft^BT) (2)
Experimental Steps for Effects of Cardiovascular Stimulating Drug Isoprenaline (ISO) and Inhibitory Drug Verapamil (VRP) on Traction Force of H9C2 Rat Cardiomyocytes
Take four Teflon well cells, two identical 9 MHz AT-cut gold electrode crystals and two identical 9 MHz BT-cut gold electrode crystals. […]

For test [3], the system named is human umbilical vein endothelial cells. In words: Double resonator QCM cell traction force of HUVECs on bare gold electrodes under thrombin or Y-27632. Conditions: 20,000 HUVECs on bare gold.
Excerpt: as §1, §2, §3
Experimental Steps for Effects for Vascular Endothelial Barrier Function Destruction Drug Thrombin and Protective Drug Y-27632 on Traction Force of Human Umbilical Vein Endothelial Cells
Take four Teflon well cells, two identical 9 MHz AT-cut gold electrode crystals and two identical 9 MHz BT-cut gold electrode crystals. Based on the aforementioned steps of measuring the cell traction force with bare gold electrode AT-cut and BT-cut quartz crystals, add 300 μL DMEM medium to the four Teflon cells respectively, and collect data for about 2 h; add 300 μL of mediums containing 20,000 human umbilical vein endothelial cells respectively, collect data for about 24 h, then add the drugs thrombin and Y-27632 to the final concentrations, and continue to collect data for about 24 h.

Test [4] shares this test system. Nature of the test: Double resonator QCM cell traction force of HUVECs on KRGD or fibronectin modified crystals under blebbistatin or nocodazole. Conditions: 20,000 HUVECs. The protocol: (§4) The Steps for Measuring the Cell Traction Force with AT-Cut and BT-Cut Quartz Crystals Modified with Specific Cell Adhesion Molecules RGD and Fibronectin are as Follows:
(§5) 1) cleaning with anhydrous ethanol and Millipore water, and blowing AT-cut and BT-cut 9 MHz crystals with nitrogen;
2) dripping 1 drop of Piranha solution (80° C. 1:3 (v:v) 30% H2O2:H2SO4) to the quartz crystal gold electrode for treating 30 s, rinsing with Millipore water and anhydrous ethanol, blowing with nitrogen, and repeating 3 times. […] Adding 20,000 HUVEC or H9C2 cells, and starting QCM for monitoring; 8) collecting the medium after the experiment, gently wash with PBS, adding trypsin for digestion, and measuring the cells in the collected fraction with a cytometer; and 9) Quantitatively estimating the dynamic change ΔS in the cell traction force during the cell adhesion process according to the frequency shifts Δft^AT and Δft^BT of the AT-cut and BT-cut quartz crystals modified with the same concentration of RGD or fibronectin at the time t based on formula (2). […]

Test [5] shares this test system. Nature of the test: QCM response and cell traction force during adhesion of HUVECs to fibronectin modified gold electrodes. The protocol:
as §4, §5
2) dripping 1 drop of Piranha solution (80° C. 1:3 (v:v) 30% H2O2:H2SO4) to the quartz crystal gold electrode for treating 30 s, rinsing with Millipore water and anhydrous ethanol, blowing with nitrogen, and repeating 3 times. Dripping the anhydrous ethanol onto the electrode to stand for a few minutes, rinsing with sterile water, and blowing with nitrogen; 3) installing the surface treated AT-cut and BT-cut quartz crystals into Teflon well cells; 4) adding a mixed anhydrous ethanol solution of 20 mM 3-mercaptopropionic acid and 1 mM triethylene glycol mono-11-mercaptoundecyl ether to the Teflon cell at room temperature, and standing overnight in the dark; 5) taking out the solution, and rinsing with sterile water; adding a PBS buffer solution (pH=5.5) with 150 mM EDC and 30 mM NHS dissolved therein, and standing for about 30 min; 6) taking out the solution, and rinsing with PBS buffer solution (pH=5.5) and sterile water; adding a PBS solution of KRGD or fibronectin of different concentrations, and standing for 1-2 h (RGDK) or overnight (fibronectin); 7) taking out the solution, and rinsing with sterilized PBS and sterile water to obtain KRGD or fibronectin modified gold electrodes. Adding 20,000 HUVEC or H9C2 cells, and starting QCM for monitoring; 8) collecting the medium after the experiment, gently wash with PBS, adding trypsin for digestion, and measuring the cells in the collected fraction with a cytometer; and 9) Quantitatively estimating the dynamic change ΔS in the cell traction force during the cell adhesion process according to the frequency shifts Δft^AT and Δft^BT of the AT-cut and BT-cut quartz crystals modified with the same concentration of RGD or fibronectin at the time t based on formula (2).
However, as the adhesion time increases, the surface of the electrode may adsorb adherent factors beneficial to cell adhesion and extracellular matrix factors secreted by the cells, so that ΔS changes positively, and the cells are gradually spread and are finally close to the value of the cell traction force on the gold electrode modified at the low FN concentration (10 μg/mL).

[6] abbreviates: electrode modified at 30 μg/mL, 40 μg/mL FN.

As for `O=C(O)CN(CCOCCOCCN(CC(=O)O)CC(=O)O)CC(=O)O` [EGTA], the cell spreading area entry in test [1] is reported as “became smaller”. Also, the “cell traction force in the initial phase” value in test [2] (1 mM EGTA) was “did not decrease but increase slightly”. In addition, the “cell generated force with the increase of EGTA time” value in test [2] (10 mM EGTA) is listed as “decreases”; in test [2] (50 mM EGTA, compared with 10 mM), “decreases more quickly”. The “overall cell traction force” value in test [2] (after different concentrations of EGTA (1, 10, 50 mM) are added) is listed as “shows a tendency to decrease”.

Take `CC(C)NCC(O)c1ccc(O)c(O)c1` (stereo not shown) [ISO, isoprenaline]: in the test with H9C2 rat cardiomyocytes (ISO final concentration 125 nM), the “QCM frequency f of AT-cut and BT-cut crystals” value is listed as “decreased”; the “cell traction force ΔS” value was “decreases and changes negatively”; the “dynamic resistance R of AT-cut and BT-cut crystals” value was “increased”.

`COc1ccc(CCN(C)CCCC(C#N)(c2ccc(OC)c(OC)c2)C(C)C)cc1OC` (stereo not shown) [VRP, verapamil]: in the test on H9C2 rat cardiomyocytes (VRP final concentration 25 nM), the “QCM frequency f of AT-cut and BT-cut crystals” value is reported as “increased”; the “cell traction force ΔS” value is “increases and changes positively”; the “dynamic resistance R of AT-cut and BT-cut crystals” value is given as “decreased”.

As to `C[C@@H](N)[C@H]1CC[C@H](C(=O)Nc2ccncc2)CC1` [Y-27632], in test [3] (0.5 μM Y-27632), the cell traction force result is on record as “decreases”, the dynamic resistance result is given as “decreases” and the “frequency shift of the crystals” value is “decreases”.

With `Cc1ccc2c(c1)C(=O)C1(O)CCN(c3ccccc3)C1=N2` (stereo not shown) [blebbistatin], the “cell traction force ΔS” value in test [4] (crystals modified at 50 μg/mL KRGD, 1.22 μM blebbistatin) was “decreases”.

As for `COC(=O)Nc1nc2ccc(C(=O)c3cccs3)cc2[nH]1` [nocodazole], the “cell traction force ΔS” value in test [4] (crystals modified at 20 μg/mL fibronectin, 0.5 μM nocodazole) was “increases at the beginning and then decreases”.

For the compound fibronectin [FN], the “cell traction force ΔS (sign)” value in test [5] (20,000 HUVECs, gold electrode modified with FN, DMEM with 2% fetal bovine serum) is reported as “positive”. Further, the “cell traction force, compared among FN concentrations” value in test [5] (electrode modified at 10 μg/mL FN) is “close and the least”. For the same compound, the “ΔS, compared among FN concentrations” value in test [5] (electrode modified at 20 μg/mL FN, tested 0, 10, 20, 30, 40, 50 μg/mL) was “maximum and stable”. In addition, in test [5] (setting [6]), the “QCM frequency shift and dynamic resistance change responses, compared among FN concentrations” value is “medium”; the “ΔS response over time” value was “increases fastest at the beginning, but fluctuates with time and attenuates to some extent”. Further, the “cell traction force, compared among FN concentrations” value in test [5] (electrode modified at 50 μg/mL FN) is “close and the least”.

Turning to thrombin, in test [3] (0.1 unit/mL thrombin), the cell traction force result is recorded as “increases”, the dynamic resistance result is recorded as “increases slightly” and the “frequency shift of the crystals” value is listed as “decreases”.
